Measurements published in US20260166128A1, “HUMAN AMYLIN ANALOG, AND DERIVATIVE THEREOF AND USE THEREOF” (priority 2022, published 2026).
Entries after “also recorded” stand apart in the source; their conditions may differ. Like-named read-outs stand apart in the source and are kept apart here. Each block holds one molecule with its values, some of them ahead of it. Numbered stars: 1 amine (or outer) side, 2 acyl side, 3 side chain; on linkers, the order of the positions; unused ones are H or OH. Bridge positions count the residues as written; N and C are the ends. Square brackets hold non-standard residues; d marks the D form. Primed or numbered codes have the meaning given here. Peptide text beside a SMILES is read from it. * marks the point of attachment. C20 diacid = O=C(O)CCCCCCCCCCCCCCCCCCC(=O)*; γGlu = O=C(O)[C@H](CCC(=O)[*:2])N[*:1]; Hyp = O=C(O)[C@@H]1C[C@@H](O)CN1; Trx′ = not defined here; AEEA = NCCOCCOCC(=O)O

Columns and labels:
human amylin receptor = target: T1, human amylin receptor (Homo sapiens, UniProt O60896+P30988); experiment: Luciferase assay of amylin derivatives in amylin receptor/CRE-luc CHO cell line; type: cell-based; details: 24 hours incubation, F12 medium containing 10% FBS
T1 construct: host or cells: CHO-K1/Ga15/AMY3 cells, further stably transfected with a CRE-luciferase plasmid
T1 sequence (P30988 25-474): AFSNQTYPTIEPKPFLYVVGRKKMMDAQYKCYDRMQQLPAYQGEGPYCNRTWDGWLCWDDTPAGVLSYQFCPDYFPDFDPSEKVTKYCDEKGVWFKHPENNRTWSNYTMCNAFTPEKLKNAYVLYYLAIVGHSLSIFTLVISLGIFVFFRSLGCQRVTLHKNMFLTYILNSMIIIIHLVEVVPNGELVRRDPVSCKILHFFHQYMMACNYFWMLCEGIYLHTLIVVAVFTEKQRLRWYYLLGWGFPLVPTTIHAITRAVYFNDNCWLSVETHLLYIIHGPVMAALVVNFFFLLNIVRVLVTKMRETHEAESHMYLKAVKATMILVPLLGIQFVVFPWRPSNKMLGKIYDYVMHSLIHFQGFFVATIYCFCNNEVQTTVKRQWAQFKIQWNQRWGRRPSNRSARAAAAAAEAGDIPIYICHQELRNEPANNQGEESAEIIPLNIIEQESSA
T1 sequence (O60896 24-148 partner): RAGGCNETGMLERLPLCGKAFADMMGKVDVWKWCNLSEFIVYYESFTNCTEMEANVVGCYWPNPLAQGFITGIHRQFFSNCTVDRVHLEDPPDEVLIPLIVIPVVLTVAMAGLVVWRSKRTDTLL
Experimental: The experiment was intended to detect the activity or efficacy of the amylin derivatives on a human amylin receptor in vitro by luciferase assay.
50 μL of growth medium (F12 medium containing 10% FBS) was added into each well of a white 96-well plate, and the stably transfected amylin/CRE-lue CHO cells were inoculated into the white 96-well plate at a density of about 20,000 cells/well for activity determination.

[1] = Freeze-thaw stability of derivatives (freeze-thaw yield by liquid chromatography); type: physicochemical; details: for Dissolution property: appearance after dissolution at 0.2 mg/ml in 20 mM phosphate buffer solution (PB) (pH 7.0); for Freeze storage property: appearance after overnight storage at −20° C. and thawing to room temperature, 0.2 mg/ml in 20 mM PB (pH 7.0); for Freeze storage yield: concentration of polypeptide after freezing and thawing / concentration before, by liquid chromatography, −20° C. overnight
How it was run: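 Lyophilised peptide derivative dissolved at 0.2 mg/ml in 20 mM phosphate buffer, pH 7.0, frozen overnight at −20° C, then thawed at room temperature. Peptide concentration before and after freeze-thaw measured by reversed-phase HPLC on centrifuged supernatant; yield = post-thaw/pre-thaw concentration.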

[2] = type: physicochemical; details: 40° C.
Experimental: The penicillin bottle after covering was placed in a stability test box at 40° C. Before testing, a sample was centrifuged at 10,000 rpm and 4° C. for 3 minutes, and a supernatant was taken and added into a liquid-phase sample injection bottle. The sample was detected by the liquid phase method in Example 3.

[3] = Weight loss efficacy of derivatives in SD rats (Example 5); type: in vivo, SD (Sprague Dawley) rats; details: subcutaneous, 30 nmol/kg
Source text: SD (Sprague Dawley) rats weighing 200 g to 250 g were selected for this experimental study. Before the experiment, the rats arrived for at least 10 days to 14 days to adapt to the experimental environment. During this period, the rats were fed for two weeks in a reversed light/dark stage (meaning that the light was turned off during the day and turned on during the night) after arrival, and were fed separately in the first week of arrival to ensure accurate data and high test sensitivity, and the rats were free to obtain food and water during the whole adaptation period and experimental period. There were an experimental group [NT]5 and A6, and an experimental group B: B1, B2, B3, B4 and B5, with 5 to 8 rats in each treatment group of the derivative, and the rats in each group were subcutaneously administered with a derivative or a solvent by a dosage of 30 nmol/kg. The administration time of each group was recorded. After administration, the rats were put back into their cages in which the rats could get food and water. Food consumption and weight changes of the rats were recorded every 24 hours by online recording or manual recording. Weight and food intake changes of the SD rats in each group were as shown in FIG. 2A to FIG. 2D, Table 9 and Table 10.

[4] = Weight loss effect of dosage of derivatives in SD rats (Example 6); type: in vivo; details: subcutaneous
Experimental: SD rats obtained by the same method as in Example 5 were used in this experimental study. There were an experimental group C: C1 to C13, and an experimental group D: D1 to D7, with 5 to 8 rats in each group of the derivative test, and according to administration schemes as shown in Table 11 and Table 12, the rats in each group […] The administration time of each group was recorded. After administration, the rats were put back into their cages in which the rats could get food and water. Food consumption and weight changes of the rats were recorded every 24 hours by online recording or manual recording. Weight and cumulative food intake changes of the SD rats in each group were as shown in FIG. 3A to FIG. 3D, FIG. 4A to FIG. 4B, Table 11 and Table 12.

[5] = Study on fatty acid side chain of derivatives, weight reduction in SD rats (Example 7); type: in vivo; details: subcutaneous, 30 nmol/kg
Source text: SD rats obtained by the same method as in Example 5 were used in this experimental study. There were an experimental group E: for testing weight reduction effects of the compounds PD065 and PD187, and an experimental group F: for testing the compounds PD065, PD071, PD140, PD144, PD145, PD146 and PD147, with 5 to 8 rats in each group of the derivative test, and the rats in each group were subcutaneously administered with a derivative or a solvent by a dosage of 30 nmol/kg. The administration time of each group was recorded. After administration, the rats were put back into their cages in which food and water available for the rats were placed. Food consumption and weight changes of the rats were recorded every 24 hours by online recording or manual recording.

[6] = EC50, CHO-K1/Ga15/AMY3 CRE-luc cells
[7] = experimental group C, 10 nmol/kg
[8] = experimental group C, 30 nmol/kg
[9] = experimental group C, 100 nmol/kg
[10] = experimental group D, 10 nmol/kg
[11] = experimental group D, 30 nmol/kg
[12] = experimental group D, 100 nmol/kg

Molecule: CC[C@H](C)[C@H](NC(=O)[C@@H]1CCCN1C(=O)CNC(=O)[C@H](Cc1ccccc1)NC(=O)[C@H](CC(N)=O)NC(=O)[C@H](CC(N)=O)NC(=O)[C@H](CO)NC(=O)[C@H](CO)NC(=O)[C@H](Cc1c[nH]cn1)NC(=O)[C@H](CCCNC(=N)N)NC(=O)[C@H](CC(C)C)NC(=O)[C@H](Cc1ccccc1)NC(=O)[C@H](CCC(=O)O)NC(=O)[C@H](C)NC(=O)[C@H](CC(C)C)NC(=O)[C@H](CCCNC(=N)N)NC(=O)[C@H](CCC(N)=O)NC(=O)[C@@H](NC(=O)[C@H](C)NC(=O)[C@@H]1CSSC[C@H](NC(=O)[C@H](CCCCN)NC(=O)CC[C@H](NC(=O)CCCCCCCCCCCCCCCCCCC(=O)O)C(=O)O)C(=O)N[C@@H](CC(N)=O)C(=O)N[C@@H]([C@@H](C)O)C(=O)N[C@@H](C)C(=O)N[C@@H]([C@@H](C)O)C(=O)N1)[C@@H](C)O)C(=O)N[C@@H](CC(C)C)C(=O)N1CCC[C@H]1C(=O)N1CCC[C@H]1C(=O)N[C@H](C(=O)N[C@@H](CC(N)=O)C(=O)N[C@H](C(=O)NCC(=O)N[C@@H](CO)C(=O)N[C@@H](CC(N)=O)C(=O)N[C@H](C(=O)N1CCC[C@H]1C(N)=O)[C@@H](C)O)C(C)C)[C@@H](C)O [PD065, Cagrilintide]
EC50 (human amylin receptor; [6]): 0.038 nM | Dissolution property [1]: Clear | Freeze storage property [1]: Clear | Freeze storage yield [1]: 93.44% | Decrease percentage of protein concentration ([2]; pH about 7.4, 0 d): 0.00% | Protein concentration ([2]; pH about 7.4, 0 d): 0.81 mg/mL | Decrease percentage of protein concentration ([2]; pH about 7.4, 7 d): 22.35% | Protein concentration ([2]; pH about 7.4, 7 d): 0.63 mg/mL | Decrease percentage of protein concentration ([2]; pH about 7.4, 15 d): 46.78% | Protein concentration ([2]; pH about 7.4, 15 d): 0.43 mg/mL | Weight change rate at 48th hour ([3]; experimental group A): −6.13 | Weight change rate at 48th hour ([3]; experimental group B): −6.74 | Cumulative food intake at 72nd hour [4, 7]: 78.31 g | Weight change rate at 72nd hour [4, 7]: 1.59% | Cumulative food intake at 72nd hour [4, 8]: 60.22 g | Weight change rate at 72nd hour [4, 8]: 0.46% | Cumulative food intake at 72nd hour [4, 9]: 44.41 g | Weight change rate at 72nd hour [4, 9]: −6.61% | Cumulative food intake at 72nd hour [4, 10]: 64.27 g | Weight change rate at 72nd hour [4, 10]: 5.95% | Cumulative food intake at 72nd hour [4, 11]: 48.00 g | Weight change rate at 72nd hour [4, 11]: 2.81% | Cumulative food intake at 72nd hour [4, 12]: 33.89 g | Weight change rate at 72nd hour [4, 12]: −3.81%

EC50 (human amylin receptor; CHO-K1/Ga15/AMY3 CRE-luc cells, read-out: EC50): 0.035 nM
Molecule: CC[C@H](C)[C@H](NC(=O)[C@@H]1CCCN1C(=O)[C@H](CCCCN)NC(=O)[C@H](CC(C)C)NC(=O)[C@H](CC(N)=O)NC(=O)[C@H](CC(N)=O)NC(=O)[C@H](CO)NC(=O)[C@H](CO)NC(=O)[C@H](Cc1c[nH]cn1)NC(=O)[C@H](CCCNC(=N)N)NC(=O)[C@H](CC(C)C)NC(=O)[C@H](Cc1ccccc1)NC(=O)[C@H](CC(=O)O)NC(=O)[C@H](C)NC(=O)[C@H](CC(C)C)NC(=O)[C@H](CCCNC(=N)N)NC(=O)[C@H](CCC(N)=O)NC(=O)[C@@H](NC(=O)[C@H](C)NC(=O)[C@@H]1CSSC[C@H](NC(=O)[C@H](CCCCN)NC(=O)CC[C@H](NC(=O)CCCCCCCCCCCCCCCCCCC(=O)O)C(=O)O)C(=O)N[C@@H](CC(N)=O)C(=O)N[C@@H]([C@@H](C)O)C(=O)N[C@@H](C)C(=O)N[C@@H]([C@@H](C)O)C(=O)N1)[C@@H](C)O)C(=O)N[C@@H](CC(C)C)C(=O)N1CCC[C@H]1C(=O)N1CCC[C@H]1C(=O)N[C@H](C(=O)N[C@@H](CC(N)=O)C(=O)N[C@H](C(=O)NCC(=O)N[C@@H](CO)C(=O)N[C@@H](CC(N)=O)C(=O)N[C@H](C(=O)N1CCC[C@H]1C(N)=O)[C@@H](C)O)C(C)C)[C@@H](C)O [PD160] ({C20 diacid-γGlu}-KCNTATCATQRLADFLRHSSNNLKPILPPTNVGSNTP-NH2; disulfide 2-7 (inferred))
Weight change rate at 48th hour ([3]; experimental group B): −7.87

EC50 (human amylin receptor; [6]): 0.016 nM
Molecule: CC[C@H](C)[C@H](NC(=O)[C@@H]1CCCN1C(=O)[C@H](CCCCN)NC(=O)[C@H](CC(C)C)NC(=O)[C@H](CC(N)=O)NC(=O)[C@H](CC(N)=O)NC(=O)[C@H](CO)NC(=O)[C@H](CO)NC(=O)[C@H](Cc1c[nH]cn1)NC(=O)[C@H](CCCNC(=N)N)NC(=O)[C@H](CC(C)C)NC(=O)[C@H](Cc1ccccc1)NC(=O)[C@H](CC(=O)O)NC(=O)[C@H](C)NC(=O)[C@H](CC(C)C)NC(=O)[C@H](CCCNC(=N)N)NC(=O)[C@H](CCC(N)=O)NC(=O)[C@@H](NC(=O)[C@H](C)NC(=O)[C@@H]1CSSC[C@H](NC(=O)[C@H](CCCCN)NC(=O)COCCOCCNC(=O)COCCOCCNC(=O)CCCCCCCCCCCCCCCCCCC(=O)O)C(=O)N[C@@H](CC(N)=O)C(=O)N[C@@H]([C@@H](C)O)C(=O)N[C@@H](C)C(=O)N[C@@H]([C@@H](C)O)C(=O)N1)[C@@H](C)O)C(=O)N[C@@H](CC(C)C)C(=O)N1CCC[C@H]1C(=O)N1CCC[C@H]1C(=O)N[C@H](C(=O)N[C@@H](CC(N)=O)C(=O)N[C@H](C(=O)NCC(=O)N[C@@H](CO)C(=O)N[C@@H](CC(N)=O)C(=O)N[C@H](C(=O)N1C[C@H](O)C[C@H]1C(N)=O)[C@@H](C)O)C(C)C)[C@@H](C)O [PD187] ({C20 diacid-AEEA-AEEA}-KCNTATCATQRLADFLRHSSNNLKPILPPTNVGSNT[Hyp]-NH2; disulfide 2-7 (inferred))
activity (weight reduction effect) compared with PD065 [5]: better than that of the PD065; also recorded: better weight reduction effect

Molecule: PD146: KCNTATCATQRLADFLRHSSNNLKPILPPTNVGSNT-trans-Hyp-NH2; N-terminal; Trx + C20 diacid ({C20 diacid-Trx′}-KCNTATCATQRLADFLRHSSNNLKPILPPTNVGSNT-{trans‑Hyp-NH2}; disulfide 2-7 (inferred); reading uncertain; also: printed as KCNTATCATQRLADFLRHSSNNLKPILPPTNVGSNT-trans-Hyp-NH2)
Dissolution property [1]: Clear | Freeze storage property [1]: Clear | Freeze storage yield [1]: 101.09% | activity (weight reduction effect) compared with PD065 [5]: better than that of the PD065
